Changes are numbered by the printed parent chain. Values joined by “and” are separate entries in the source; they are usually repeats but may differ in a detail not shown here. Equal entries are not always repeated.
How the values were obtained:
GluD2-Lc = target: T1, GluD2-Lc (Rattus norvegicus, UniProt Q63226, A654T); assay: Two-electrode voltage clamp in Xenopus oocytes, inhibition of spontaneous currents; format: cell-based
T1 construct: the function of full-length receptors as well, we introduced them into the GluD2 lurcher mutant (GluD2-Lc); expressed in transfected cells; host or cells: Xenopus laevis oocytes injected with cRNA
T1 sequence (Q63226 24-1007 A654T): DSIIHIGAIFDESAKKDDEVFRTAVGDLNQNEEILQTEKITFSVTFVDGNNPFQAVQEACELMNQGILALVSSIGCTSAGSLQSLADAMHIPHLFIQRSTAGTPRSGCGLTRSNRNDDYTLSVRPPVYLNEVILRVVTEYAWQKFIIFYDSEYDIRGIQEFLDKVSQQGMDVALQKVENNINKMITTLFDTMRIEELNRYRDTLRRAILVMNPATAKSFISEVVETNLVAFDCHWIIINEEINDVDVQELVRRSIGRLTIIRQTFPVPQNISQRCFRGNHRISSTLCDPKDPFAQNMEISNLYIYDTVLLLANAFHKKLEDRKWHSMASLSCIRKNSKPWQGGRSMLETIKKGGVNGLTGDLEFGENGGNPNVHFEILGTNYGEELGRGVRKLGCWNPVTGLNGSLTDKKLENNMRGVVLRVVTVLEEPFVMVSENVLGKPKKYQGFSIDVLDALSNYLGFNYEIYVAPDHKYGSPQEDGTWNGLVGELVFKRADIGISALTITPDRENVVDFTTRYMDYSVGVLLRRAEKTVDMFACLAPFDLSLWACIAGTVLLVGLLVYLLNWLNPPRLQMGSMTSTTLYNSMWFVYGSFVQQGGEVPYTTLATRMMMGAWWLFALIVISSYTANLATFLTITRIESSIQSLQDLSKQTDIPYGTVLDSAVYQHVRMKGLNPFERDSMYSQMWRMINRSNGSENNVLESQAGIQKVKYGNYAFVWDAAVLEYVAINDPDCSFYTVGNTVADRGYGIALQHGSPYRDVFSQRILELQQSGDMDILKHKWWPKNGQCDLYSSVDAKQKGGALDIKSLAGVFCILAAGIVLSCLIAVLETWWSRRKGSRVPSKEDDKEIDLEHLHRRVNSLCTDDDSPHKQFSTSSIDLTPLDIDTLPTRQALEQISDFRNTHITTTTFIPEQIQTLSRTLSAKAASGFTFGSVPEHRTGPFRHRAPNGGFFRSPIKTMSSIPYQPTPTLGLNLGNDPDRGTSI

GluD2-Lc(A686S) = target: T2, GluD2-Lc(A686S) (Rattus norvegicus, UniProt Q63226, A654T/A686S); assay: as above; format: cell-based; details: fraction of spontaneous current inhibited by saturating D-serine
T2 construct: the function of full-length receptors as well, we introduced them into the GluD2 lurcher mutant (GluD2-Lc); expressed in transfected cells; host or cells: Xenopus laevis oocytes injected with cRNA
T2 sequence (Q63226 24-1007 A654T/A686S): T1 sequence (Q63226 24-1007 A654T) with A663S

N[C@H](CO)C(=O)O [D-serine]
D-serine efficacy Mean ± SEM (GluD2-Lc; fraction of spontaneous current inhibited by saturating D-serine): 46% and 46.2 ± 1.9%
maximal, absolute, D-serine-induced steady-state inhibition of spontaneous currents (GluD2-Lc; n = 20): 222 ± 36 nA
D-serine efficacy Mean ± SEM (GluD2-Lc(A686S)): 43.9 ± 0.7%
